# Source: US10670605B2, “Cysteine reactive probes and uses thereof” (The Scripps Research Institute, priority 2015, dated 2020)
# Key:
# Assay in all cases: Competitive isoTOP-ABPP in situ (fragment-treated cells)
# Format in all cases: cell-based
# [1] = biological target: T1, cysteines in MDA-MB-231 and Ramos cells (Homo sapiens, UniProt O14929); settings: 200 μM, insitu
# T1 sequence (O14929 1-419): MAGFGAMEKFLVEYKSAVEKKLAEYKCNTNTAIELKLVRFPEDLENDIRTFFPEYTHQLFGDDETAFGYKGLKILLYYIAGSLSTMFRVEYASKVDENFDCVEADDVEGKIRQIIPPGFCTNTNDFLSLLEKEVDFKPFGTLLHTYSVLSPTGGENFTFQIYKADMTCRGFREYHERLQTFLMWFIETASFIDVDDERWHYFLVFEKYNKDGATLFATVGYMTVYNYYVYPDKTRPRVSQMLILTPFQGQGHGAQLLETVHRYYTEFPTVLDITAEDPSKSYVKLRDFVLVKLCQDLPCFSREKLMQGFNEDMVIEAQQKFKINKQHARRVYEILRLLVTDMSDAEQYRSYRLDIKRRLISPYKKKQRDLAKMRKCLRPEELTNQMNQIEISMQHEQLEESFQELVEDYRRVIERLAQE
# [2] = biological target: cysteines in MDA-MB-231 and Ramos cells (Homo sapiens, UniProt O60825); settings: 200 μM, insitu
# cysteines in MDA-MB-231 and Ramos cells (Homo sapiens, UniProt O60825), sequence (O60825 whole entry): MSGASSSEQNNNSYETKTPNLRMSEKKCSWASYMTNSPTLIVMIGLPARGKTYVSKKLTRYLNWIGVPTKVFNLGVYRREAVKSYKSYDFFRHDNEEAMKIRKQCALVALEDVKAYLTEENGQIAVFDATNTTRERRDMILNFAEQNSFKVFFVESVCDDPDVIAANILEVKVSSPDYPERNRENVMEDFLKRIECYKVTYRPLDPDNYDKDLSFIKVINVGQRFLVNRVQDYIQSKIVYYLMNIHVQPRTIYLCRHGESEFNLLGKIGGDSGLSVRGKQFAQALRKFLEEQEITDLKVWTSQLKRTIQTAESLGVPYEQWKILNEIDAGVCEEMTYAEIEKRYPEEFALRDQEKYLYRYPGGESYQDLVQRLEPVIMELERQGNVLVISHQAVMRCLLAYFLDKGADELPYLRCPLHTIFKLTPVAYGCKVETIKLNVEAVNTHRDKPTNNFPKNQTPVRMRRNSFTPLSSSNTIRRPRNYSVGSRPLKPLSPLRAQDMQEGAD
# [3] = biological target: cysteines in MDA-MB-231 and Ramos cells (Homo sapiens, UniProt P27708); settings: 200 μM, insitu
# cysteines in MDA-MB-231 and Ramos cells (Homo sapiens, UniProt P27708), sequence (P27708 whole entry): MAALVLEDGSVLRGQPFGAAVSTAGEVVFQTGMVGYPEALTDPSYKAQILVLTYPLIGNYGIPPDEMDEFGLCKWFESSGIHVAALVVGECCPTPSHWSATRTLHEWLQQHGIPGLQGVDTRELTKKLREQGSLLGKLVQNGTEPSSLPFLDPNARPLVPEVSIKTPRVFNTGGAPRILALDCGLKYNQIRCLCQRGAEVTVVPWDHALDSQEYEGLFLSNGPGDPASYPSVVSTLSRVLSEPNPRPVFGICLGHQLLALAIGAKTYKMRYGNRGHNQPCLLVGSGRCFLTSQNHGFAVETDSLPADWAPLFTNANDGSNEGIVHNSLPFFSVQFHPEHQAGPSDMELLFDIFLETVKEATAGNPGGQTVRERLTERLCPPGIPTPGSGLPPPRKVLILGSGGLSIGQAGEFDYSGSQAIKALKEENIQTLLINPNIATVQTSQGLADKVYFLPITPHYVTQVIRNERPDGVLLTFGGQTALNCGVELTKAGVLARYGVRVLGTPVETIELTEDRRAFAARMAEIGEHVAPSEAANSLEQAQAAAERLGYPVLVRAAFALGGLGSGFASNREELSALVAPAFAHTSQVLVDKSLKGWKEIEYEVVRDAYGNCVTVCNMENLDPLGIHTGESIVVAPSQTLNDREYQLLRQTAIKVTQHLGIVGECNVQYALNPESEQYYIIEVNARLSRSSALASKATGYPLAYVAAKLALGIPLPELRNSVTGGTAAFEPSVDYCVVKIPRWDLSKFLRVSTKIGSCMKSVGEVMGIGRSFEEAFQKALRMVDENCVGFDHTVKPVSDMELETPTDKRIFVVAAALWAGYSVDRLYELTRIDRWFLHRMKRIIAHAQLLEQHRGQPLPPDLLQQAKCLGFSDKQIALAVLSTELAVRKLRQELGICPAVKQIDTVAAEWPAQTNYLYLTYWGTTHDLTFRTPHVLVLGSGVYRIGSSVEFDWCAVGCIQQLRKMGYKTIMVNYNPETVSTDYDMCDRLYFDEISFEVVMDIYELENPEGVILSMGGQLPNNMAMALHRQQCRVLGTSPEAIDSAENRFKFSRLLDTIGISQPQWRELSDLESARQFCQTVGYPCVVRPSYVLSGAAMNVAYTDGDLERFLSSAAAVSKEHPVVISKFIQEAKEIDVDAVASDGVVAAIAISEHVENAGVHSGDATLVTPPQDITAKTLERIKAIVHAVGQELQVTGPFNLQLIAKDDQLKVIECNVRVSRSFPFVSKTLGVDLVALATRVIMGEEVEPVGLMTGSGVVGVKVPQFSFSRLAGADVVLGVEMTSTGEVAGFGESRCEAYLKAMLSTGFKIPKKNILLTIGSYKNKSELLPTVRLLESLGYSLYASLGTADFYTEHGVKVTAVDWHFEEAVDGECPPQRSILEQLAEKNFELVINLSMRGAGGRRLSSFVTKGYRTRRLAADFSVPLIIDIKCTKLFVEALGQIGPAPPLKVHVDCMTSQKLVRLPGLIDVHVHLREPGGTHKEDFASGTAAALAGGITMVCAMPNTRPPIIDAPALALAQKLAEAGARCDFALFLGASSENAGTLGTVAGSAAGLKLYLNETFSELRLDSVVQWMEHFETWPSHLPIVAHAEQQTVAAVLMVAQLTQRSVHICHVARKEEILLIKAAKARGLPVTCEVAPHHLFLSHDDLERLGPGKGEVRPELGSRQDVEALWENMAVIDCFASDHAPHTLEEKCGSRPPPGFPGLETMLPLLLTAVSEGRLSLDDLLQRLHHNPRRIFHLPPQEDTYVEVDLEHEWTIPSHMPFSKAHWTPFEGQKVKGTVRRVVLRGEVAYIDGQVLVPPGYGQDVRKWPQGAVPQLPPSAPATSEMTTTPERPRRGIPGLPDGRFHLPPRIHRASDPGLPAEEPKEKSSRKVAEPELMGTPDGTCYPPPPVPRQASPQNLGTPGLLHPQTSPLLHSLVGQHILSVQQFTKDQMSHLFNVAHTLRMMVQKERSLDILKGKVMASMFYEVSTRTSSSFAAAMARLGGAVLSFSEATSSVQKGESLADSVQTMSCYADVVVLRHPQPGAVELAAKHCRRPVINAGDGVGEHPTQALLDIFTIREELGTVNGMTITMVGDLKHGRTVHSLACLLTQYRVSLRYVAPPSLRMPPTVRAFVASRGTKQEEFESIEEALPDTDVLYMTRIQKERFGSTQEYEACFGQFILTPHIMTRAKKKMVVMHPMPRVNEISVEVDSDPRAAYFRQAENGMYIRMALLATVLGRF
# [4] = biological target: cysteines in MDA-MB-231 and Ramos cells (Homo sapiens, UniProt P49189); settings: 200 μM, insitu, 231
# cysteines in MDA-MB-231 and Ramos cells (Homo sapiens, UniProt P49189), sequence (P49189 whole entry): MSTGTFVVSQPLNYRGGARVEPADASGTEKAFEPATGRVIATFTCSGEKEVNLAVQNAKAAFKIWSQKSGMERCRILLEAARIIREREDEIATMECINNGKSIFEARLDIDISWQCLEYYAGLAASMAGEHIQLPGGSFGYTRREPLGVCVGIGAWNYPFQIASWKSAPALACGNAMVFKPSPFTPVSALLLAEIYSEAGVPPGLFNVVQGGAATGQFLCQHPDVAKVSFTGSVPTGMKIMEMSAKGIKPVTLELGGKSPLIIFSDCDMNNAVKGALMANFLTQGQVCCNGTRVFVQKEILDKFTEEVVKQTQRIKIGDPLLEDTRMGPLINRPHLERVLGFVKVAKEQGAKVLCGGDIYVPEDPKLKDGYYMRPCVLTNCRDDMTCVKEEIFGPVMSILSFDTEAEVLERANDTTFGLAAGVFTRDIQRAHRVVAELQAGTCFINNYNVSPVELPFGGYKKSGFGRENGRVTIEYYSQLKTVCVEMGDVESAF
# [5] = biological target: cysteines in MDA-MB-231 and Ramos cells (Homo sapiens, UniProt Q15118); settings: 200 μM, insitu
# cysteines in MDA-MB-231 and Ramos cells (Homo sapiens, UniProt Q15118), sequence (Q15118 29-436): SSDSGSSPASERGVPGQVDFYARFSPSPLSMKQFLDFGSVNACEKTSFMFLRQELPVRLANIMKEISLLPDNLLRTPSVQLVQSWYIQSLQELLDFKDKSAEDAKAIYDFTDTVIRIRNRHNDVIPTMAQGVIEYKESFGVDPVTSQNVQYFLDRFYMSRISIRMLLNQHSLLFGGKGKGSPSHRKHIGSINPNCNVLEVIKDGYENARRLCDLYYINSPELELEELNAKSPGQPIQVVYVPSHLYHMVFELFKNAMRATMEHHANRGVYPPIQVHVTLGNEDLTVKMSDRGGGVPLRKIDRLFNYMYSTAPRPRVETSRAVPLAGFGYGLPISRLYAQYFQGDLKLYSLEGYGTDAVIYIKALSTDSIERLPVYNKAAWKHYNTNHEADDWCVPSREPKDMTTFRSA
# [6] = biological target: T2, cysteines in MDA-MB-231 and Ramos cells (Homo sapiens, UniProt Q5TFE4); settings: 200 μM, insitu, 231
# T2 sequence (Q5TFE4 1-455): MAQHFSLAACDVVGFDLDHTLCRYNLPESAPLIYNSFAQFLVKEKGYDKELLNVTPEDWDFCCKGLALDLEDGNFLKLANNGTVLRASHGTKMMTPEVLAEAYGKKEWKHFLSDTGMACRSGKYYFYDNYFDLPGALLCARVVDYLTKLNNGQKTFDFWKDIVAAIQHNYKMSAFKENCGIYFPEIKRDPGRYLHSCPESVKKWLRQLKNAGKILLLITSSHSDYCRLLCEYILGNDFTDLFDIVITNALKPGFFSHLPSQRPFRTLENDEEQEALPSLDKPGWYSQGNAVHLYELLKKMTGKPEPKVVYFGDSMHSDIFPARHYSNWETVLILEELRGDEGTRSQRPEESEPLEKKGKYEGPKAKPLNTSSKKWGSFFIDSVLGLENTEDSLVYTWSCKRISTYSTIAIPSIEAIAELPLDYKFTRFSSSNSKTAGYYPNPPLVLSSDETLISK
# [7] = biological target: T3, cysteines in MDA-MB-231 and Ramos cells (Homo sapiens, UniProt Q9NTX5); settings: 200 μM, insitu, 231
# T3 sequence (Q9NTX5 1-307): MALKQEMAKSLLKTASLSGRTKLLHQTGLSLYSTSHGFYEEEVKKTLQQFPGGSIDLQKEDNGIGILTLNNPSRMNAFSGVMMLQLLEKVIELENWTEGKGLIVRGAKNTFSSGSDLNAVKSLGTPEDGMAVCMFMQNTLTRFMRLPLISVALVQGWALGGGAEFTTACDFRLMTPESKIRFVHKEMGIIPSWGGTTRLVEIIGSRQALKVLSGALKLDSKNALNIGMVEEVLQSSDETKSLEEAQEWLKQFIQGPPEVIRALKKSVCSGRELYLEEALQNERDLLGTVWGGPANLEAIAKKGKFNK
# [8] = biological target: cysteines in MDA-MB-231 and Ramos cells (Homo sapiens, UniProt Q9Y676); settings: 200 μM, insitu, 231
# [9] = biological target: T4, cysteines in MDA-MB-231 and Ramos cells (Homo sapiens, UniProt Q15013); settings: 200 μM, insitu, 231
# T4 sequence (Q15013 1-274): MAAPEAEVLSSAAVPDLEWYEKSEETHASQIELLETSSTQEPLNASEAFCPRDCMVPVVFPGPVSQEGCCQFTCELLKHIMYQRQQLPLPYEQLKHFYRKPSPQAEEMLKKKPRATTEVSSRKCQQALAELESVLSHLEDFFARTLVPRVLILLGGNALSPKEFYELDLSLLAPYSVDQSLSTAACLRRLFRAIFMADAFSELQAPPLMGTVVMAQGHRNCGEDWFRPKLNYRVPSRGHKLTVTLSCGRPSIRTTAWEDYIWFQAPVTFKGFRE
# [10] = biological target: T5, cysteines in MDA-MB-231 and Ramos cells (Homo sapiens, UniProt Q86W42); settings: 200 μM, insitu, 231
# T5 sequence (Q86W42 1-341): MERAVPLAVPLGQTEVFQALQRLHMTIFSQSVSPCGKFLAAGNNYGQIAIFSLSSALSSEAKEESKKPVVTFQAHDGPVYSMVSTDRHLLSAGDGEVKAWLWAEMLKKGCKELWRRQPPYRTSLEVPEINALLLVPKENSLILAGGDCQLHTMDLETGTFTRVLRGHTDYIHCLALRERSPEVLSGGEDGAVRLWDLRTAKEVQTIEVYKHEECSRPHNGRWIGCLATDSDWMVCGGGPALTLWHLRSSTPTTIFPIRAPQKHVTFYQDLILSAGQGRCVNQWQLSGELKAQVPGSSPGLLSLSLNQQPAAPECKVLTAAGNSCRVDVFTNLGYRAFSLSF
SMILES,isoTOP-ABPP ratio O14929_C101 [1]; 231,isoTOP-ABPP ratio O60825_C158 [2]; 231,isoTOP-ABPP ratio P49189_C288 [4],isoTOP-ABPP ratio Q15118_C71 [5]; 231,isoTOP-ABPP ratio Q9NTX5_C133 [7],isoTOP-ABPP ratio Q9Y676_C128 [8],isoTOP-ABPP ratio Q15013_C124 [9],isoTOP-ABPP ratio Q86W42_C35 [10],other results
O=C(CCl)NC12CC3CC(CC(C3)C1)C2 [compound 21],1.2,1.4,1.0,1.7,1.1,1.5,,,"isoTOP-ABPP ratio, cysteine P27708_C73 [3]; 231: 0.6; isoTOP-ABPP ratio, cysteine Q5TFE4_C119 [6]: 1.2"
CC(C)CCOCCNC(=O)CCl [compound 27],,,,1.5,1.5,1.0,1.0,1.3,isoTOP-ABPP ratio P27708_C73 [3]; 231: 0.5
COc1ccccc1OCCNC(=O)CCl [compound 28],,,,,,,1.0,1.3,
O=C(CCl)N1CCN(CC(=O)N2CCOCC2)CC1 [compound 29],,,,,,,,,isoTOP-ABPP ratio O14929_C101 ([1]; ramos): 1.0; isoTOP-ABPP ratio O60825_C158 ([2]; ramos): 0.9; isoTOP-ABPP ratio P27708_C73 ([3]; ramos): 1.8; isoTOP-ABPP ratio Q15118_C71 ([5]; ramos): 1.8
C=CC(=O)N(Cc1cccnc1)c1cc(C(F)(F)F)cc(C(F)(F)F)c1 [compound 31],,,,,,,,0.5,"isoTOP-ABPP ratio O60825_C158 ([2]; ramos): 1,3; isoTOP-ABPP ratio Q5TFE4_C119 [6]: 3.1"
C=CC(=O)Nc1cc(F)c(N2CCN(C(=O)OC(C)(C)C)CC2)c(F)c1 [compound 38],1.1,,0.7,1.3,,1.0,,0.8,
Cc1ccc(C=C(C#N)C(=O)NCCN2CCOCC2)cc1 [compound 41],0.6,0.7,0.8,,,,,1.1,isoTOP-ABPP ratio P27708_C73 [3]; 231: 0.7; isoTOP-ABPP ratio Q5TFE4_C119 [6]: 0.5
CC1CCc2ccccc2N1C(=O)CCl (stereo not shown) [compound 45],20.0,1.3,20.0,20.0,4.2,2.0,20.0,20.0,
O=C(CCl)Nc1cccc2ncccc12 [compound 51],,0.9,,,,1.0,1.2,1.4,
